≈ marks a conversion by molar mass, not a printed value. Read-outs that look alike come from different tables or passages of the source. Marks after values point to notes of the source that are not given here. Starred links: 1 amine or outer side, 2 acyl side, 3 side chain; linkers in the order of their positions; H or OH if unused. Positions of bridges follow the written chain, without caps; N, C: chain ends. Non-standard residues stand in square brackets, D forms with d. Residues, ends and D or L forms follow the SMILES beside them. Chains are numbered I, II in the order given. *: point of attachment. X1 = CC(=O)N[C@@H](CCCCN[*:3])C(=O)NCCC(=O)N[C@@H](CCCCN[*:2])C(=O)NCCC(=O)N[C@@H](CCCCN[*:1])C(N)=O; X2 = CC[C@H](C)CCCCC(=O)*; Orn = NCCC[C@H](N)C(=O)O; Dab = NCC[C@H](N)C(=O)O; βAla = NCCC(=O)O
Legend:
Assay type in all cases: cell-based
Human erythrocytes = experiment: Haemolysis assay; conditions: 10% (vol/vol) human erythrocytes in PBS pH 7.2, 1 h at room temperature, absorbance 550 nm; triplicates
Experimental: Haemolysis was determined by incubating a 10% (vol/vol) suspension of human erythrocytes with peptides. Erythrocytes were rinsed four times in 10 mM phosphate buffer saline (PBS), pH 7.2, by repeated centrifugation and re-suspension (3 min at 3000×g). Erythrocytes were incubated at room temperature for 1 h in either deionised water (fully haemolysed control), PBS, or with peptide in PBS. After centrifugation at 10,000×g for 5 min, the supernatant was separated from the pellet, and the absorbance was measured at 550 nm. Absorbance of the suspension treated with deionised water defined complete haemolysis.

S. enterica (ATCC700720) = tested on: S. enterica (ATCC700720)
Experimental: (§1) MICs were determined by broth microdilution on different bacteria according to the Clinical and Laboratory Standards Institute. […] The absorbance was measured after peptide addition at 600 nm using a Victor 2 plate reader (Perkin-Elmer).

S. aureus (ATCC6538) = tested on: S. aureus (ATCC6538)
Experimental: (§2) MICs were determined by broth microdilution on different bacteria according to the Clinical and Laboratory Standards Institute. Typically, 100 μL of 0.5–1 × 10^6 CFU mL^–1 of each bacterium in Mueller Hinton media broth (Oxoid) were incubated in 96-well microtitre plates with 100 μL of serial two-fold dilutions of the peptides (from 100 to 0 μM) at 37 °C on a 3D orbital shaker. The absorbance was measured after peptide addition at 600 nm using a Victor 2 plate reader (Perkin-Elmer). MICs were defined as the lowest peptide concentration after 24 h at 37 °C.

E. coli (K12) = tested on: E. coli (K12)
Experimental: as §2

B. subtilis (ATCC6633) = tested on: B. subtilis (ATCC6633)
Experimental: as §2

[1] = tested on: P. aeruginosa (ATCC27853)
Experimental: as §2

E. faecalis (OG1X) = tested on: E. faecalis (OG1X)
Experimental: as §2

[2] = tested on: K. pneumoniae (NCTC 5055)
Experimental: as §1, with “(Perkin-Elmer). MICs were defined as the lowest peptide concentration after 24 h at 37 °C.” for “(Perkin-Elmer).”

[3] = S. enterica (ATCC700720), Mueller Hinton broth, 0.5–1 × 10^6 CFU mL–1, 24 h at 37 °C, absorbance 600 nm, total peptide concentration, triplicates

Compound | LC50, median (50%) cell death compared to untreated cells (Human erythrocytes) | Minimum inhibitory concentrations (S. enterica (ATCC700720); [3]) [µM] | Minimum inhibitory concentrations (S. aureus (ATCC6538); ATCC6538, 24 h) [µM] | Minimum inhibitory concentrations (E. coli (K12); K12, 24 h) [µM] | Minimum inhibitory concentrations (B. subtilis (ATCC6633); ATCC6633, 24 h) [µM] | Minimum inhibitory concentrations ([1]; ATCC27853, 24 h) [µM] | Minimum inhibitory concentrations (S. enterica (ATCC700720); ATCC700720, 24 h) [µM] | Minimum inhibitory concentrations (E. faecalis (OG1X); OG1X, 24 h) [µM] | Minimum inhibitory concentrations ([2]; NCTC 5055, 24 h) [µM] | Minimum inhibitory concentrations (S. aureus (ATCC6538); S. aureus (ATCC6538), Mueller Hinton broth, 0.5–1 × 10^6 CFU mL–1, 24 h at 37 °C, absorbance 600 nm, total peptide concentration, triplicates) [µM] | Minimum inhibitory concentrations (E. coli (K12); E. coli (K12), Mueller Hinton broth, 0.5–1 × 10^6 CFU mL–1, 24 h at 37 °C, absorbance 600 nm, total peptide concentration, triplicates) [µM] | Minimum inhibitory concentrations (E. faecalis (OG1X); E. faecalis (OG1X), Mueller Hinton broth, 0.5–1 × 10^6 CFU mL–1, 24 h at 37 °C, absorbance 600 nm, total peptide concentration, triplicates) [µM] | Minimum inhibitory concentrations (B. subtilis (ATCC6633); B. subtilis (ATCC6633), Mueller Hinton broth, 0.5–1 × 10^6 CFU mL–1, 24 h at 37 °C, absorbance 600 nm, total peptide concentration, triplicates) [µM] | Minimum inhibitory concentrations ([1]; P. aeruginosa (ATCC27853), Mueller Hinton broth, 0.5–1 × 10^6 CFU mL–1, 24 h at 37 °C, absorbance 600 nm, total peptide concentration, triplicates) [µM] | Minimum inhibitory concentrations ([2]; K. pneumoniae (NCTC 5055), Mueller Hinton broth, 0.5–1 × 10^6 CFU mL–1, 24 h at 37 °C, absorbance 600 nm, total peptide concentration, triplicates) [µM]
CC(C)C[C@@H]1NC(=O)[C@H](CCCN)NC(=O)[C@H](C(C)C)NC(=O)[C@@H]2CCCN2C(=O)[C@@H](Cc2ccccc2)NC(=O)[C@H](CC(C)C)NC(=O)[C@H](CCCN)NC(=O)[C@H](C(C)C)NC(=O)[C@@H]2CCCN2C(=O)[C@@H](Cc2ccccc2)NC1=O [Gramicidin S] (cyclo(V[Orn]L[dF]PV[Orn]L[dF]P)) | >20 µM | <10 | <20 | <20 | >40 | >40 |  |  |  |  |  |  |  |  | 
I: H-KIAKLKQKIQKLKAKIAKLKQ[βAla][βAla] / II: H-KIAKLKQKIQKLKAKIAKLKQ[βAla][βAla] / III: H-KIAKLKQKIQKLKAKIAKLKQ[βAla][βAla] (linker I:C-II:C-III:C via X1) [C 3 (+) strand] |  |  | 50 | 1.5 | 1.5 | 3 | 3 | 50 | >12 |  |  |  |  |  | 
CC[C@H](C)CCCCC(=O)N[C@@H](CCN)C(=O)N[C@H](C(=O)N[C@@H](CCN)C(=O)N[C@H]1CCNC(=O)[C@H]([C@@H](C)O)NC(=O)[C@H](CCN)NC(=O)[C@H](CCN)NC(=O)[C@H](CC(C)C)NC(=O)[C@@H](Cc2ccccc2)NC(=O)[C@H](CCN)NC1=O)[C@@H](C)O [Polymyxin B] (X2-[Dab]T[Dab][Dab][Dab][dF]L[Dab][Dab]T; lactam 4-C (inferred); N-terminus assumed) |  | <1 |  |  |  |  |  |  |  | <50 | <1 | >100 | 1.5 (≈ 1.81 µg/mL) | <1 | <1
CCCCCCCCCC(=O)N[C@@H](Cc1c[nH]c2ccccc12)C(=O)N[C@H](CC(N)=O)C(=O)N[C@@H](CC(=O)O)C(=O)N[C@@H]1C(=O)NCC(=O)N[C@@H](CCCN)C(=O)N[C@@H](CC(=O)O)C(=O)N[C@H](C)C(=O)N[C@@H](CC(=O)O)C(=O)NCC(=O)N[C@H](CO)C(=O)N[C@@H]([C@H](C)CC(=O)O)C(=O)N[C@@H](CC(=O)c2ccccc2N)C(=O)O[C@@H]1C [Daptomycin] | >250^d µM | >50 | <8 | >100 | <8 | >100 |  | >100 |  |  |  |  |  |  | 

Reference: PMC5741663, “Antimicrobial peptide capsids of de novo design” (Nature Communications, 2017)
